Experimental findings from PMC12040169 (PLOS Biology, 2025) are described below.

The nature of this series: in vitro. To be noted: human, hela cells, % viability.

With `CC1(C)Cc2nc3sc(C(=O)O)c(NC(=O)c4ccccc4)c3cc2CO1` [CBK266166], the viability at 28.5 h, 10 µM stood at 98.4%.

`Cc1ccc2oc(C(=O)N3CCN(CC(=O)N(C)C)CC3)c(C)c2c1` [CBK281423]: the viability at 28.5 h, 10 µM is 94.2%.

On to `CCN(CC)CCn1nc2n(c1=O)-c1ccccc1SC(c1ccccc1)C2` (stereo not drawn) [CBK016064], for which the viability at 28.5 h, 10 µM stood at 91.9%.

On to `CCN(CC)CC1CCCN(C(=O)Cn2ccc3ccc(F)cc32)C1` (stereo not drawn) [CBK282146], for which the viability at 28.5 h, 10 µM amounted to 87.8%.

In the case of `O=S(=O)(Nc1nnc(C(F)(F)F)s1)c1ccc(-c2ccccn2)s1` [CBK062016], the viability at 28.5 h, 10 µM was determined as 91.9%.

For `O=C(c1ccc(SCc2cccnc2)c([N+](=O)[O-])c1)N1CCCCC1` [CBK294452], the viability at 28.5 h, 10 µM is 98.8%.

Turning to `CN(C)S(=O)(=O)c1ccc(Cl)c(C(=O)Nc2cccc(O)c2)c1` [CBK265723], the viability at 28.5 h, 10 µM was 113%.

As for `C=CCn1c2ccccc2c2nnc(SC(CC)C(=O)N3c4ccccc4Sc4ccccc43)nc21` (stereo not drawn) [CBK263040], the viability at 28.5 h, 10 µM was 90.7%.

As for `O=C1CC(NCC2CCCO2)C(=O)N1c1ccc(N2C(=O)CC(NCC3CCCO3)C2=O)cc1` (stereo not drawn) [CBK263962], the viability at 28.5 h, 10 µM came to 89.9%.

Regarding `c1cncc(-c2cnn(-c3ccc4[nH]ccc4c3)n2)c1` [CBK112820], the viability at 28.5 h, 10 µM was found to be 85.7%.

Take `CCCCC12CN3CCN(CC(C3)/C1=N\N=C1/C3CN4CCN(C3)CC1(CCCC)C4)C2` [CBK264981]: the viability at 28.5 h, 10 µM came to 104%.

As to `CN1CCCC(NC(=O)C2CCN(Cc3ccc(F)cc3)CC2)C1` (stereo not drawn) [CBK282516], the viability at 28.5 h, 10 µM worked out at 119%.

For the molecule `Cn1nc(-c2ccc(S(=O)(=O)n3cc(C#N)c(N)n3)s2)cc1C(F)(F)F` [CBK067237], the viability at 28.5 h, 10 µM is 91.2%.

With `COc1ccc(C)cc1NC(=O)N1CCC2(CC1)CC(=O)c1ccc(C)cc1O2` [CBK166520], the viability at 28.5 h, 10 µM amounted to 91.4%.

Consider `Nc1ncc(-c2ccc3c(c2)OCO3)nc1NCc1ccncc1` [CBK063483], for which the viability at 28.5 h, 10 µM was 106%.

Consider `Cc1ccccc1OC(C)C(=O)Nc1ccc(S(=O)(=O)N2CCCC2)cc1` (stereo not drawn) [CBK269367], for which the viability at 28.5 h, 10 µM was 89.7%.

Take `Cn1ncc2c(C(=O)O)cc(-c3ccccc3)nc21` [CBK288024]: the viability at 28.5 h, 10 µM came to 88.9%.

`COC(=O)c1c(C)[nH]c(C(=O)CSc2ncnc3scc(-c4ccccc4)c23)c1C` [CBK265918]: the viability at 28.5 h, 10 µM was 95.5%.

Regarding `O=C(Nc1cccc(C(F)(F)F)c1)N1CCN(CCCCc2ccc(F)cc2)CC1` [CBK013363C], the viability at 28.5 h, 10 µM is 90.4%.

In the case of `CN1CCC(N2CCN(C(=O)c3ccc4c(c3)no[n+]4[O-])CC2)CC1` [CBK149095], the viability at 28.5 h, 10 µM came out at 92.6%.

Regarding `CC(CC(=O)N1CCC(Oc2ccccc2F)CC1)n1cccn1` (stereo not drawn) [CBK282118], the viability at 28.5 h, 10 µM worked out at 84.6%.

Take `CCn1ncc(CN2C3CCC2CC(O)(c2cccc(F)c2)C3)c1C` (stereo not drawn) [CBK282754]: the viability at 28.5 h, 10 µM came out at 91.6%.

As to `CC1(C)CC2CC(C)(CN2Cc2c(O)ccc3cc(-c4nc(-c5ccc(Br)cc5)cs4)c(=O)oc23)C1` (stereo not drawn) [CBK263831], the viability at 28.5 h, 10 µM amounted to 103%.

With `CC1CCN(Cc2c(C3CCNCC3)[nH]c3ncccc23)CC1` [CBK285022], the viability at 28.5 h, 10 µM was 91.7%.

`COc1cc(NS(=O)(=O)c2ccc(NC(=O)c3ccc(C)o3)cc2)nc(OC)n1` [CBK268182]: the viability at 28.5 h, 10 µM worked out at 91.6%.

Regarding `COc1cccc(C(=O)NCCC(=O)N2CCN(C)CC2)c1` [CBK304663], the viability at 28.5 h, 10 µM turned out to be 95.4%.

With `CS(=O)(=O)Nc1ccccc1C(=O)NCc1ccccn1` [CBK268494], the viability at 28.5 h, 10 µM amounted to 106%.

Turning to `Cc1nc(C)c(C(=O)N2CCC(c3cc4c(C)cccc4cn3)CC2)o1` [CBK285186], the viability at 28.5 h, 10 µM worked out at 108%.

On to `O=S(=O)(c1ccc(-c2ccc(S(=O)(=O)N3CCOCC3)cc2)cc1)N1CCOCC1` [CBK261366], for which the viability at 28.5 h, 10 µM came out at 103%.

With `CC(C)(C)C1CCc2c(sc(NC(=S)NC(=O)c3cc4ccccc4o3)c2C(N)=O)C1` (stereo not drawn) [CBK268635], the viability at 28.5 h, 10 µM was determined as 95%.

Turning to `Cc1c(CN2CCC3(CC2)CC(c2ccccc2)CN(C)C3)cnn1C` (stereo not drawn) [CBK306666], the viability at 28.5 h, 10 µM came to 105%.

`CCCC1CN(C)c2ccccc2C1=O` (stereo not drawn) [CBK023527]: the viability at 28.5 h, 10 µM worked out at 87%.

Consider `Cc1cc(COc2nccnc2N2CCN(CC3CCCCC3)CC2)no1` [CBK084205], for which the viability at 28.5 h, 10 µM turned out to be 94.2%.

Take `CCOC(=O)c1cnc(O/N=C(\N)c2ccc(C(C)(C)C)cc2)nc1C(F)(F)F` [CBK022142]: the viability at 28.5 h, 10 µM was determined as 103%.

As for `O=c1[nH]cnc2ccc(Br)cc12` [CBK026537], the viability at 28.5 h, 10 µM turned out to be 93.7%.

On to `O=C(CS(=O)(=O)c1ccccc1)N1CCN2C(=O)N(C3CCCCC3)C(=O)[C@H]2C1` [CBK289580], for which the viability at 28.5 h, 10 µM turned out to be 89.6%.

For `COc1ccc(OC(=O)c2csc(Cc3c(Cl)cccc3Cl)n2)cc1` [CBK083573], the viability at 28.5 h, 10 µM came to 95.7%.

Turning to `C=C(C)Cn1c(SC(C)C)nnc1-c1cccnc1` [CBK200073], the viability at 28.5 h, 10 µM is 85.7%.

For the molecule `COc1ccc(Nc2cc(-c3cccc(N)c3)ncn2)c(C)c1` [CBK091035], the viability at 28.5 h, 10 µM came out at 97.1%.

Regarding `COC(=O)c1ccsc1NC(=O)c1cc(-c2ccc(C)o2)nc2ccc(Br)cc12` [CBK267752], the viability at 28.5 h, 10 µM turned out to be 86.7%.

In the case of `O=c1[nH]nc2c(SCc3ccccc3)nccn12` [CBK288440], the viability at 28.5 h, 10 µM stood at 90.5%.

Regarding `CC(NC(=O)CCc1ccncc1)C1CC2CCC1C2` (stereo not drawn) [CBK282090], the viability at 28.5 h, 10 µM turned out to be 99.8%.

Take `CNS(=O)(=O)c1ccc2c(c1)CCN2C(=O)C1C2CCCCC21` (stereo not drawn) [CBK281521]: the viability at 28.5 h, 10 µM was determined as 100%.

As to `CC(C)(C)OC(=O)N1CCC(CNS(C)(=O)=O)CC1` [CBK003925], the viability at 28.5 h, 10 µM stood at 78%.

`CC(C)(C)OC(=O)N1CCN(S(=O)(=O)c2ccc(Cl)c([N+](=O)[O-])c2)CC1` [CBK003165]: the viability at 28.5 h, 10 µM worked out at 100%.

Take `COc1cccc(NC(=O)c2ccc(NC(=O)CCCC(=O)O)cc2)c1` [CBK287137]: the viability at 28.5 h, 10 µM was determined as 83.7%.

In the case of `CCn1c2ccccc2c2cc(CN3CCN(Cc4cccc(F)c4)CC3)ccc21` [CBK263143], the viability at 28.5 h, 10 µM is 90.5%.

Turning to `CCCCCCC(C)n1c(-c2nonc2N)nc2ccccc21` (stereo not drawn) [CBK062648], the viability at 28.5 h, 10 µM is 94.2%.

With `CN(C)CCN1C(=O)C2C3c4ccccc4C([N+](=O)[O-])(c4ccccc43)C2C1=O` (stereo not drawn) [CBK269286], the viability at 28.5 h, 10 µM turned out to be 81.4%.

In the case of `Cc1c(Cl)cccc1S(=O)(=O)NC1=NC(=O)C(CC(=O)Nc2ccccc2Cl)S1` (stereo not drawn) [CBK200043], the viability at 28.5 h, 10 µM came out at 107%.

Take `O=C(NCc1ccco1)c1cc(-c2ccc(Cl)cc2)cnc1N1CCOCC1` [CBK076352]: the viability at 28.5 h, 10 µM turned out to be 87%.

As to `COc1ccccc1Cc1cccc(C2CCN(C(=O)c3ccc(F)cc3)CC2)n1` [CBK286237], the viability at 28.5 h, 10 µM is 108%.

For the molecule `CC(C)c1ccc(S(=O)(=O)Nc2cccnc2)cc1` [CBK043884], the viability at 28.5 h, 10 µM came out at 97.9%.

For `C#CCNCc1ccc(O)cc1` [CBK013235C], the viability at 28.5 h, 10 µM stood at 87.4%.

For the molecule `Cc1ccccc1Nc1nc(N)nc(CN2CC(C)OC(C)C2)n1` (stereo not drawn) [CBK305856], the viability at 28.5 h, 10 µM was found to be 105%.

Take `COC(=O)c1c(N=C(S)Nc2ccc(CC(=O)O)cc2)sc(C)c1C` [CBK267111]: the viability at 28.5 h, 10 µM came to 96.4%.

`CCC(NC(=O)c1cn(CCOC)c2ccccc12)c1ccncc1` (stereo not drawn) [CBK305186]: the viability at 28.5 h, 10 µM (bulk resorufin, single well) is 95.7%.

Take `O=C1NC[C@]2(CC[C@@H](C(=O)NC3CC3)CC2)Oc2ccc(Cl)cc21` [CBK284889]: the viability at 28.5 h, 10 µM is 94.2%.

Consider `CCOC(=O)C1(c2ccccc2)CCN(C(=O)c2ccc3nc[nH]c3c2)CC1` [CBK132208], for which the viability at 28.5 h, 10 µM (bulk resorufin, single well) is 103%.

For `Cc1ccc(-c2nn(-c3ccccc3)cc2C2CC(c3cccs3)=NN2C(=O)CCC(=O)O)cc1` (stereo not drawn) [CBK296126], the viability at 28.5 h, 10 µM was 107%.

Consider `Oc1c2c(nn1Cc1ccccc1)CCCC2` [CBK089898], for which the viability at 28.5 h, 10 µM was 87.4%.

With `Cc1[nH]nc(O)c1Cc1ccccc1F` [CBK105306], the viability at 28.5 h, 10 µM was found to be 97.1%.

In the case of `Cc1cc2c(cc3c(=O)n(CC(=O)N4CCCCC4)nc(C)n32)o1` [CBK283630], the viability at 28.5 h, 10 µM came to 83.4%.

For the molecule `CC(C)NC(=O)N1CCCC2(C1)NCCc1c2[nH]c2ccccc12` (stereo not drawn) [CBK046952], the viability at 28.5 h, 10 µM came to 86.7%.

As to `Cn1c(CN2C[C@H](O)C[C@H]2c2nc(-c3ccccc3)no2)nc2ccccc21` [CBK288834], the viability at 28.5 h, 10 µM came to 78.7%.

On to `O=C(NC(C(=O)N/N=C/c1cccs1)c1n[nH]c(=O)c2ccccc12)c1ccccc1` (stereo not drawn) [CBK261250], for which the viability at 28.5 h, 10 µM was 98%.

On to `COc1ccccc1CN(C)S(=O)(=O)c1ccc(S(N)(=O)=O)cc1` [CBK306008], for which the viability at 28.5 h, 10 µM was 113%.

For `CC(=O)NS(=O)(=O)c1ccc(NC(=O)c2cn(-c3ccccc3)nc2-c2cccs2)cc1` [CBK296125], the viability at 28.5 h, 10 µM is 86.3%.

As to `Cc1cc(C)n(CCC(=O)N2CCCC2c2nc3ccccc3[nH]2)n1` (stereo not drawn) [CBK283664], the viability at 28.5 h, 10 µM is 106%.

Consider `COc1ccc(C(NC(=O)C2CCN(C(=O)Oc3ccccc3)CC2)c2ccccc2C)cn1` (stereo not drawn) [CBK059715], for which the viability at 28.5 h, 10 µM was 91.1%.

As to `O=C(O)COc1ccc(NC(=O)Cc2ccc([N+](=O)[O-])cc2)cc1` [CBK268573], the viability at 28.5 h, 10 µM turned out to be 104%.

In the case of `CC(C)(C)NS(=O)(=O)c1ccc(OCC(=O)NCc2ccncc2)cc1` [CBK266434], the viability at 28.5 h, 10 µM came to 97.3%.

For `CCn1cc(S(=O)(=O)NCc2ccccc2F)cn1` [CBK270306], the viability at 28.5 h, 10 µM came to 91.6%.

`COc1cnc(-c2cnn(C)c2)c(NC(=O)Cc2ccccc2)n1` [CBK145327]: the viability at 28.5 h, 10 µM came to 101%.

As to `Cc1ccc(C(=O)COc2ccc(/C=C(\C#N)c3nc(-c4ccc5c(c4)OCO5)cs3)cc2)cc1` [CBK266778], the viability at 28.5 h, 10 µM is 101%.

As for `O=C1Cc2ccccc2C2(CCN(C(=O)c3cccc4cccc(C(=O)O)c34)CC2)N1` [CBK047313], the viability at 28.5 h, 10 µM stood at 93.2%.

With `CC(C)(C)OC(=O)N1CCCC(NCc2ccccn2)CC1` (stereo not drawn) [CBK305128], the viability at 28.5 h, 10 µM was 106%.

In the case of `COc1ccc(CC(=O)NNC(=O)c2ccc(C(C)(C)C)cc2)cc1` [CBK261700], the viability at 28.5 h, 10 µM was found to be 92.5%.

What is called viability is a read-out of living cells in per cent, often relative to untreated cells.
